Results: paper PMC9326216, “Treatment of Cardiovascular Dysfunction with PDE3-Inhibitors in Moderate and Severe Hypothermia—Effects on Cellular Elimination of Cyclic Adenosine Monophosphate and Cyclic Guanosine Monophosphate” (Frontiers in Physiology, 2022)
Like-named read-outs stand apart in the source and are kept apart here.

Biological target: T1, ABCC4 (Homo sapiens, UniProt O15439)
T1 sequence (O15439 1-1325): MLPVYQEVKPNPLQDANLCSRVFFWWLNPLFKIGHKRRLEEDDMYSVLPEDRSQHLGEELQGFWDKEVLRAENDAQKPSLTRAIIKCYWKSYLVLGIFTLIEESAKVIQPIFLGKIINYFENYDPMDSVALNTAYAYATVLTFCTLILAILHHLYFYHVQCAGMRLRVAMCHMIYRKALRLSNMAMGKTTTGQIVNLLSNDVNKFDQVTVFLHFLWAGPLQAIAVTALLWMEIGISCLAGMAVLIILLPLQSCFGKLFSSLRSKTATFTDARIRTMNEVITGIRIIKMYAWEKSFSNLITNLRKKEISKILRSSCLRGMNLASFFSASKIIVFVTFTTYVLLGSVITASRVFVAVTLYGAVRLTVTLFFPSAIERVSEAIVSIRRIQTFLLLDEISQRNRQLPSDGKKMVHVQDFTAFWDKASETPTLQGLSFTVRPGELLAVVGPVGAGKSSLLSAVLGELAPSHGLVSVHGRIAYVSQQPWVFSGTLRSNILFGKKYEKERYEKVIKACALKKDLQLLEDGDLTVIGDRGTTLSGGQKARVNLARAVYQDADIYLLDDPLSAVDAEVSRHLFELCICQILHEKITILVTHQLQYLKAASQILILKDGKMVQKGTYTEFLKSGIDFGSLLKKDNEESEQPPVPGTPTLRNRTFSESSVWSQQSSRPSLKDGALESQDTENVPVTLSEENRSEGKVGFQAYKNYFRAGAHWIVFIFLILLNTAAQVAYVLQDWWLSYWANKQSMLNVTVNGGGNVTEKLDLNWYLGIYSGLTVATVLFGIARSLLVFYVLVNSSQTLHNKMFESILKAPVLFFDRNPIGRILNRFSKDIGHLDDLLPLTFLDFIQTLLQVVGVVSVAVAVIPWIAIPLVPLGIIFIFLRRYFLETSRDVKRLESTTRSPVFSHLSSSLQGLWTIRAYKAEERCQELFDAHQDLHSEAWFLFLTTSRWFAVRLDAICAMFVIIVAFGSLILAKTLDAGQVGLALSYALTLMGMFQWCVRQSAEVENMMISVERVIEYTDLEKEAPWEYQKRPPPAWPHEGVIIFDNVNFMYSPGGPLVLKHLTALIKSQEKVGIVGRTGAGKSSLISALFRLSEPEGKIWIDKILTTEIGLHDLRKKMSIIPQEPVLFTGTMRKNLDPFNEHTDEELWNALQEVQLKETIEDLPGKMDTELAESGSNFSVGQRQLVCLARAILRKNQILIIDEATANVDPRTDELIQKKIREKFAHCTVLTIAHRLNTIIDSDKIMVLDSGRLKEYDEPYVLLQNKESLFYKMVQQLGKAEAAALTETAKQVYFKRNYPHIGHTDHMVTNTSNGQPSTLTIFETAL
Assay: biochemical
Type: biochemical
Protocol: Freshly collected EDTA blood from healthy donors (n = 35) was prepared at 0°C–4°C, starting by separating the erythrocytes from plasma by centrifugation at 2,300 g for approximately 15 min. […] Lysis followed thereafter, with ten volumes of 5 mM Tris-HCl, 0.5 mM EGTA, 4 mM KCl (pH 8.1) and washed by repeated centrifugation at 20,000 g for 20 min and resuspension in the same buffer. Vesiculation was initiated by adding 39 volumes of a […] buffer ([…] Tris-HCl, pH 8.2) to one volume of cell suspension and completed by forcing the solution five times through a 27-gauge syringe needle to promote homogenization of the membranes. […] The resulting IOVs, which still contained ABC-transporters in the membrane, enabled us to control the intracellular environment, in this case the surrounding medium, and collect the cyclic nucleotides within. […] Radioactive labeled (^3H)-cAMP or (^3H)-cGMP (Perkin Elmer, Boston, MA, United States) were added to the incubation solutions in the concentration 20 and 2 μM, respectively, depending on the transporter examined, together with the appointed study drug in concentrations up to 1 mM. […] Next step was to collect the IOVs, which was done by filtration through a nitrocellulose membrane (Bio-Rad Laboratories, Feldkirchen, Germany), and then drying it. The resulting collection of radioactivity upon the filter, was later quantified by using a Packard TopCount NXT (Packard, Downers Grove, IL, United states) after adding scintillation fluid (MicroScint-O, PerkinElmer, Groningen, Netherlands).
IC50 and Ki values were calculated for each of the drugs, both for their ability to inhibit cAMP- and cGMP- efflux, as well as PDE3 and PDE5 activity. […] Inhibition curves were created accordingly, both with and without adjustment for normothermic control.

C[C@@H]1CC(=O)NN=C1c1ccc(NN=C(C#N)C#N)cc1 [Levosimendan] was tested, and the “Drug selectivity (IC50)/(IC50): (cAMP-efflux)/(PDE3) inhibition” value (28°C) was 270.65, the IC50 (28°C, Table 3, read-out: ABCC5 IC50 (Table 3)) was 27.2 ± 21.3 µM and the Ki (28°C, Table 3, read-out: ABCC5 Ki (Table 3)) was 16.5 ± 12.9 µM. The “Drug selectivity (IC50)/(IC50): (cAMP-efflux)/(PDE3) inhibition” value (28°C, listed as L) was 270.7, the “Drug selectivity (IC50)/(IC50): (cAMP-efflux)/(PDE3) inhibition” value (32°C) was 85.98 and the IC50 (32°C, Table 3, read-out: ABCC5 IC50 (Table 3)) was 16.5 ± 5.56 µM. The Ki (32°C, Table 3, read-out: ABCC5 Ki (Table 3)) was 10 ± 3.37 µM, the “Drug selectivity (IC50)/(IC50): (cAMP-efflux)/(PDE3) inhibition” value (34°C) was 43.45 and the IC50 (34°C, Table 3, read-out: ABCC5 IC50 (Table 3)) was 12.7 ± 6.6 µM. For the same compound, the Ki (34°C, Table 3, read-out: ABCC5 Ki (Table 3)) was 7.73 ± 4 µM, the “Drug selectivity (IC50)/(IC50): (cAMP-efflux)/(PDE3) inhibition” value (37°C) was 28.76 and the IC50 (37°C, Table 3, read-out: ABCC5 IC50 (Table 3)) was 9.41 ± 5.91 µM. The Ki (37°C, Table 3, read-out: ABCC5 Ki (Table 3)) was 5.71 ± 3.58 µM.
Nc1cc(-c2ccncc2)c[nH]c1=O [Amrinone] gave an IC50 (28°C, cAMP-efflux, inside-out vesicles, 20 µM 3H-cAMP, 60 min, read-out: ABCC4 IC50) of 8.42 ± 4.81 µM, a Ki (28°C, cAMP-efflux, inside-out vesicles, read-out: ABCC4 Ki) of 5.11 ± 2.91 µM and an IC50 (32°C, cAMP-efflux, inside-out vesicles, 20 µM 3H-cAMP, 60 min, read-out: ABCC4 IC50) of 5.49 ± 2.25 µM. It also gave a Ki (32°C, cAMP-efflux, inside-out vesicles, read-out: ABCC4 Ki) of 3.33 µM, an IC50 (34°C, cAMP-efflux, inside-out vesicles, 20 µM 3H-cAMP, 60 min, read-out: ABCC4 IC50) of 1.21 ± 0.1 µM and a Ki (34°C, cAMP-efflux, inside-out vesicles, read-out: ABCC4 Ki) of 0.73 ± 0.058 µM. For the same compound, the IC50 (37°C, cAMP-efflux, inside-out vesicles, 20 µM 3H-cAMP, 60 min, read-out: ABCC4 IC50) was 4.65 ± 3.21 µM and the Ki (37°C, cAMP-efflux, inside-out vesicles, read-out: ABCC4 Ki) was 2.82 µM.
